Experimental data reported in paper PMC9064813, “Interaction of the synthetic antithrombotic peptide P10 with thrombin: a spectroscopy study” (RSC Advances, 2019).
Where no end group is shown, it is not given here.

What was measured:
thrombin [1] = target: T1, thrombin (Bos taurus, UniProt P00735); assay: in vitro antithrombotic activity (thrombin-induced fibrinogen clotting, absorbance at 405 nm); assay type: biochemical, Bovine
T1 construct: thrombin consists of a 36-residue light chain and a 259-residue heavy chain; purchased Sigma-Aldrich Co. (St. Louis, MO, USA)
Procedure: Antithrombotic activity was determined according to the method of Yang et al.[53] The samples of thrombin and fibrinogen were dissolved in 0.05 M pH 7.4 Tris–HCl buffer, respectively. The determination was carried out using the IMark plate reader (Uji-shi, Kyoto, Japan) at 405 nm. 140 μL of 1 mg mL^−1 fibrinogen and 40 μL of the sample were added to the microplate, then mixed and the absorbance was recorded as Sb. After, 10 μL of thrombin (12 IU mL^−1) was added to the mixture which was maintained at 37 °C for 10 min, and the absorbance was recorded as S. 40 μL of buffer instead of the sample was used for control group, and the absorbances were Cb and C, respectively. The antithrombotic activity was calculated from eqn (5) as follows:5 [drawing 4]

thrombin [2] = target: T1, thrombin; assay: fluorescence quenching of thrombin by P10 (Stern-Volmer, binding constant, thermodynamics); design: species or system Bovine; settings: 310 K, log (F0 − F)/F against log [Q]
Text: The Stern–Volmer plot at 290 K and 310 K was plotted to determine the quenching mechanism (static quenching or dynamic quenching), as shown in Fig. 2B. F0 and F represented the fluorescence intensity of thrombin in the absence and presence of P10, respectively. And [Q] represented the concentration of the quencher. In general, the stability and quenching constants of the compounds formed under the static quenching mechanism decrease with increasing temperature. The interaction under dynamic quenching increases the number of effective collisions and enhances energy transfer, thus increasing the quenching constant of the fluorescent material as the temperature increases.[26,30]
To confirm this conclusion, the fluorescence quenching data was further analyzed by the Stern–Volmer eqn (1).[31] Where Ksv represented the quenching constant of the Stern–Volmer.1 [drawing 1]
The binding constant (Kb) and the number of binding sites (n) can be obtained from eqn (2) when small molecules are independently bound to a set of equivalent sites on the macromolecule:[33]2 [drawing 2] […]
The fluorescence spectra were recorded on the Hitachi F-4500 fluorescence spectrophotometer (Hitachi, Japan). […] The fluorescence emission spectrum of the mixture from 290 nm to 420 nm was scanned, and the excitation wavelength was set to 280 nm. […]

thrombin [3] = settings: cited from earlier work; for inhibition of thrombin activity: at a concentration of 0.4 mg mL^−1, purified from Alcalase 2.4L hydrolysate of peanut protein
Text: In addition, three peptides SWAQL, GNHEAGE and CFNEYE were purified from the A ...

Substance: AGFAGDDAPR [P10, AGFAGDDAPR]
- IC50 (thrombin [1]): 164 µM
- Binding constant Kb (thrombin [2]): 174 M⁻¹

Substance: CFNEYE [peptide purified from the Alcalase 2.4L hydrolysate of peanut protein]
- inhibition of thrombin activity (thrombin [3]): complete inhibition

Substance: GNHEAGE [peptide purified from the Alcalase 2.4L hydrolysate of peanut protein]
- inhibition of thrombin activity (thrombin [3]): complete inhibition

Substance: KNAENELGEVTVR
- antithrombotic activity (thrombin [3]; at a concentration of 1 mg mL^−1): 67.21%

Substance: SWAQL [peptide purified from the Alcalase 2.4L hydrolysate of peanut protein]
- inhibition of thrombin activity (thrombin [3]): complete inhibition

Substance: VEPVTVNPHE [anticoagulant peptide purified from Buthus martensii Karsch]
- IC50, inhibition of thrombin activity (thrombin [3]; peptide purified from Buthus martensii Karsch): 12 µg/mL
